Legend:
Assay type in all cases: in vivo, Pisum sativum L.
pea mutant rms1 [1] = test: Inhibition of branching in the pea, application directly on the axillary bud; details: Experiment 7, FIG. 9; 0.1 nM, 1 nM, 10 nM and 100 nM
pea rms1 mutants = test: Hydroponic culture test in pea; details: 1 μM in hydroponic culture solution, 8 days
Procedure: For this example, ramosus (rms1) hyperbranched pea (Pisum sativum L.) mutants were used.
More particularly, rms1 (rms1-10) hyperbranched mutant plants were used. The nutritive solution (100%) was prepared by adding the following macronutrients to 1000 l of water: HNO3 (0.28 l), (NH4)2HPO4 (120 g), Ca(NO3)2 (40 g), Mg(NO3)2 (140 g), KNO3 (550 g), (NH4)2MoO4 (0.05 g), H3BO3 (15 g), MnSO4.H2O (2 g), ZnSO4.7H2O (1 g), CuSO4.5H2O (0.25 g), Sequestrene® (10 g) (Fe-EDTA solution). The pea seeds were germinated in moist sand for 6 days, then placed in holes of a lid (35 holes/lid, 20 mm in diameter) of an opaque PVC pot containing the hydroponic culture solution (47 l, pH 5.8).
In a first experiment, acetone or the compound to be tested (dissolved in acetone) was added to the hydroponic culture solution so as to obtain a final concentration of 0 or 1 μM of compound to be tested and 0.01% of acetone.
The hydroponic culture solution was continually aerated by means of an aquarium pump and replaced each week. 8 days after the start of the treatment, the lengths of bud/branch (nodes 1 to 6) were measured with an electronic sliding caliper.
This experiment was carried out for the compounds according to the invention (IIa) and (IIIb), and also the GR24 compound as comparative compound. A negative control (<<CTL 0>>), corresponding to a treatment with the solvent alone, was also carried out.
The results (mean data on 20 plants), in terms of, on the one hand, length of the branches at nodes 3 to 5 and, on the other hand, plant height, are shown respectively in FIGS. 11 and 12.
The same experiment was carried out for the compound in accordance with the invention (II″g) and the comparative compound GR24. Dimethyl sulfoxide (DMSO) or the compound to be tested, dissolved in DMSO, was added to the hydroponic culture solution so as to obtain a final concentration of 0 or 3 μM of compound to be tested and 0.01% of DMSO.
The results (mean data on 10 to 12 plants), in terms, on the one hand, of length of the branches at nodes 3 to 4 and, on the other hand, of plant height, are shown respectively in FIGS. 13 and 14.

pea rms4 mutant = system: pea rms4 mutant
Procedure: The protocol used is in accordance with that described in example 4 above. Compound concentrations of 100 nM and 3 μM were tested. A negative control consisting of the solvent alone (<<CTL 0>>) was also tested.
The number of dead buds following the treatment with 3 μM of compound was also determined after 8 days of treatment (on groups of 48 plants).

pea mutant rms1 [2] = test: Inhibition of branching in the pea, application directly on the axillary bud; details: for activity (length of bud/branch at node 3, 8 days after treatment at node 3): mean of 24 plants
Procedure: Generally, in the pea, the first two scales are considered to be the first two nodes, the cotyledonary node being node 0.
The rms1 mutant is an “SMS” signal biosynthesis mutant, repressing branching of the plant.
Tests for activity on the inhibition of branching were carried out in the following way.
The strigolactone-deficient rms1 (ccd8) pea mutants described in Beveridge et al., 1997, were used for the test (M3T884 line derived from the Térèse variety).
The activity of the compounds (IIa), (II′d) and (II′e) in accordance with the invention and of the comparative compound GR24 was evaluated at respective doses of 10 nM, 100 nM and 1 μM, by treatment at node 3. […]
24 plants were sown per treatment. 8 days after sowing, the treatment was carried out on the axillary bud at node 3, by application of 10 μl of each solution to be tested, directly on the bud, by means of a micropipette. The lateral outgrowths at nodes 1 and 2 were removed in order to encourage the growth of the axillary buds at the higher nodes. […]
The activity of the compounds (IIa), (IIb), (IIc), (II′d), (II′e) and (II′f) in accordance with the invention was evaluated at respective doses of 100 nM and 1 μM, by treatment at node 3.
For this, solutions containing each compound to be tested, in 1% acetone, 4% propylene glycol 1450 and 50% ethanol, were used.
The activity of the compounds (IIa), (IIIa), (IIIb) and (IIIc) in accordance with the invention, and also of GR24 as comparative compound, was evaluated at respective doses of 100 nM and 1 μM, by treatment at node 3, according to the protocol described above with reference to experiment 2.
A sample consisting only of the solvent, and without active compound, was also tested as negative control, termed “CTL 0”.
In this experiment, the activity of the compound (IIIa) in accordance with the invention, and also of GR24 as comparative compound, was evaluated at respective doses of 1 nM, 10 nM, 100 nM and 1 μM, by treatment at node 3, according to the protocol described above with reference to experiment 2, for doses of 10 nM, 100 nM and 1 μM of compounds.
A sample consisting only of the solvent, and without active compound (“CTL 0”) was also tested as a negative control. A nontreated (“NT”) control was also carried out.
A dose-response test for evaluating the activity of the compounds by deposition at node 3 was carried out according to the protocol described above with reference to experiment 2, for the compound in accordance with the invention (IIa) and for the comparative compounds GR24, Comp. 3 and Comp. 4. Concentrations of 10 nM, 100 nM and 1 μM were tested.
A sample consisting only of the solvent, and without active compound (“CTL 0”), was also tested as a negative control. A nontreated (“NT”) control was also carried out.
A dose-response test for evaluating the activity of the compounds by deposition at node 3 was carried out according to the protocol described above with reference to experiment 2, for the compound in accordance with the invention (IIa) and for the comparative compounds GR24, Comp. 5 and Comp. 6. Concentrations of 10 nM and 100 nM were tested. […]
The sprouting of the axillary buds at node 4 was measured 8 days after the treatment by means of a digital sliding caliper.
The activity of the compound (IIIa) in accordance with the invention on bud growth at node 3 was evaluated at a dose of 1000 nM by treatment at node 3. The GR24 compound was tested at the same concentration as comparative compound. […]

CC1=C(C)C(Sc2ccc(Cl)cc2)OC1=O (stereo not shown) [Compound (IIa), 5-((4-chlorophenyl)thio)-3,4-dimethylfuran-2(5H)-one]
inhibitory activity on bud growth at node 4 (length of bud/branch 8 days after treatment at node 4) (pea mutant rms1 [1]): equivalent to that of GR24 at the strongest concentrations, and slightly better at the lowest concentration of 0.1 nM
length of the branches at nodes 3 to 5 (pea rms1 mutants; FIG. 11): activity of the compounds in accordance with the invention (IIa) and (IIIb) on all the branches of nodes 3 to 5
plant height (pea rms1 mutants; FIG. 12): significant effect on plant height is also demonstrated, comparable between the comparative compound GR24 and the compound in accordance with the invention (IIa)
length of bud/branch at node 3 (toxicity) (pea rms4 mutant; 100 nM and 3 μM, 8 days after treatment at node 3, FIG. 15): absence of effects of the compounds in accordance with the invention (IIa) and (IIIb) compared with a negative control, and between the two treatment doses
number of dead buds after treatment (pea rms4 mutant; 3 μM, 8 days of treatment, groups of 48 plants, FIG. 16): no significant difference is notable regarding the number of dead buds following the treatment
inhibitory activity on bud growth (length of bud/branch at node 3, 8 days after treatment at node 3) (pea mutant rms1 [2]; Experiment 1, FIG. 3, 10 nM, 100 nM, 1 μM, at the highest concentrations): inhibitory activity on bud growth which is greater than that of the comparative compound GR24
inhibitory activity on bud growth (length of bud/branch at node 3, 8 days after treatment at node 3) (pea mutant rms1 [2]; Experiment 2, FIG. 4, 100 nM and 1 μM): most active
bud growth inhibition (length of bud/branch at node 3, 8 days after treatment at node 3) (pea mutant rms1 [2]; Experiment 3, FIG. 5, 100 nM and 1 μM): activity similar to that of the comparative compound GR24
activity (length of bud/branch at node 3, 8 days after treatment at node 3) (pea mutant rms1 [2]; Experiment 5, FIG. 7, 10 nM, 100 nM and 1 μM): activity which is greater than the comparative compounds provided by the prior art, Comp. 3 and Comp. 4, this being at all the doses tested
activity (length of bud/branch at node 3, 8 days after treatment at node 3) (pea mutant rms1 [2]; Experiment 6, FIG. 8, 10 nM and 100 nM): activity which is greater than the comparative compounds provided by the prior art, Comp. 5 and Comp. 6, this being at all the doses tested

Reference: patent US9532569B2 (INSTITUT NATIONAL DE LA RECHERCHE AGRONOMIQUE, priority 2012, dated 2017)
